Measurements from US9284345B2 (priority 2007, dated 2016).
Like-named read-outs stand apart in the source and are kept apart here.

How the values were obtained:
[1] = system: Shionogi mouse mammary carcinoma cells; experiment: cells; type: cell-based; conditions: for inhibition at 0.0003 µM: Mus musculus, read-out: % of inh of DHT at 10^−7 M (Basal = 100%)
Human Androgen Receptor = target: T1, Human Androgen Receptor (Homo sapiens, UniProt P10275); type: binding
T1 construct: expressed in transfected cells; host or cells: HEK-293 cells stably transfected with the pCMVneo-hAR plasmid (G-418 selection); cytosol used
T1 sequence (P10275 1-920): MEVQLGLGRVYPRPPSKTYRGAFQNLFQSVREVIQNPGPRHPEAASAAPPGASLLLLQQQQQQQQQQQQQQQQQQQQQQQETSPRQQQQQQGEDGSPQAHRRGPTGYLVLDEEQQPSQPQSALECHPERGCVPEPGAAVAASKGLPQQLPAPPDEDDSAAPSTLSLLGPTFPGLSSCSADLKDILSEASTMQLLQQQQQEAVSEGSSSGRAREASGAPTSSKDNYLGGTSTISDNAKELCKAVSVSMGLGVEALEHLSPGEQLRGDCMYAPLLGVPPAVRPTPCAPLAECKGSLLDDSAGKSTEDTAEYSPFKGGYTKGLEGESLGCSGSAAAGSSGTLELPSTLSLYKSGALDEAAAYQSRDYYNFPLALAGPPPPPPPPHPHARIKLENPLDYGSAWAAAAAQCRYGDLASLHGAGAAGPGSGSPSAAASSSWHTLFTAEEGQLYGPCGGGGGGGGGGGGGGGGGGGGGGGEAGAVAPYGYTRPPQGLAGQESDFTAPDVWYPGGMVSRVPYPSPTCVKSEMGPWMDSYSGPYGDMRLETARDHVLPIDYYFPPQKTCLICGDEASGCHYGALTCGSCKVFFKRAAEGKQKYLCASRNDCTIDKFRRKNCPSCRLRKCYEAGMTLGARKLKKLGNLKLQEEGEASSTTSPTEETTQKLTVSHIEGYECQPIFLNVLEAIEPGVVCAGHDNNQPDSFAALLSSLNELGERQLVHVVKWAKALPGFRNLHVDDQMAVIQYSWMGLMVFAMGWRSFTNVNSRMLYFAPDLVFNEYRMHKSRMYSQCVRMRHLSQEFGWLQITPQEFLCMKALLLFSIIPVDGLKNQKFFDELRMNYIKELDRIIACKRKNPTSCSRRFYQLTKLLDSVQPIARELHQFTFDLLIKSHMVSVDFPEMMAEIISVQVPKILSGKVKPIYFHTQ

Immature Rat CX = conditions: for In Vivo Agonist % Change vs CX (DHT = +100%) SV / In Vivo Agonist % Change vs CX (DHT = +100%) VP: sc
Immature Rat CX + DHT = experiment: animal or person; type: in vivo; conditions: for In Vivo Anti-A Rat CX + DHT % change vs DHT (CX CONT = −100%) Bulbo / In Vivo Anti-A Rat CX + DHT % change vs DHT (CX CONT = −100%) SV / In Vivo Anti-A Rat CX + DHT % change vs DHT (CX CONT = −100%) VP / change in vivo at 0.1 mg / change in vivo at 0.5 mg: po; for change in vivo at 0.1 mg / change in vivo at 0.5 mg: Rattus norvegicus, 168 h
Intact Rat = experiment: In vivo activity in intact rat (organ and muscle weight)
in vivo = conditions: male, Sprague-Dawley, rat, po; for AUC: in vivo, 0.5 mg
Rat Androgen Receptor = target: T2, Rat Androgen Receptor (Rattus norvegicus, UniProt P15207); experiment: Androgen receptor binding assay (HAP, [3H]R1881), rat prostate cytosol
T2 construct: ventral prostates collected from 24 h-gonadectomized rats were homogenized in buffer A; from tissue; host or cells: rat ventral prostate cytosol (24 h-gonadectomized rats)
T2 sequence (P15207 1-902): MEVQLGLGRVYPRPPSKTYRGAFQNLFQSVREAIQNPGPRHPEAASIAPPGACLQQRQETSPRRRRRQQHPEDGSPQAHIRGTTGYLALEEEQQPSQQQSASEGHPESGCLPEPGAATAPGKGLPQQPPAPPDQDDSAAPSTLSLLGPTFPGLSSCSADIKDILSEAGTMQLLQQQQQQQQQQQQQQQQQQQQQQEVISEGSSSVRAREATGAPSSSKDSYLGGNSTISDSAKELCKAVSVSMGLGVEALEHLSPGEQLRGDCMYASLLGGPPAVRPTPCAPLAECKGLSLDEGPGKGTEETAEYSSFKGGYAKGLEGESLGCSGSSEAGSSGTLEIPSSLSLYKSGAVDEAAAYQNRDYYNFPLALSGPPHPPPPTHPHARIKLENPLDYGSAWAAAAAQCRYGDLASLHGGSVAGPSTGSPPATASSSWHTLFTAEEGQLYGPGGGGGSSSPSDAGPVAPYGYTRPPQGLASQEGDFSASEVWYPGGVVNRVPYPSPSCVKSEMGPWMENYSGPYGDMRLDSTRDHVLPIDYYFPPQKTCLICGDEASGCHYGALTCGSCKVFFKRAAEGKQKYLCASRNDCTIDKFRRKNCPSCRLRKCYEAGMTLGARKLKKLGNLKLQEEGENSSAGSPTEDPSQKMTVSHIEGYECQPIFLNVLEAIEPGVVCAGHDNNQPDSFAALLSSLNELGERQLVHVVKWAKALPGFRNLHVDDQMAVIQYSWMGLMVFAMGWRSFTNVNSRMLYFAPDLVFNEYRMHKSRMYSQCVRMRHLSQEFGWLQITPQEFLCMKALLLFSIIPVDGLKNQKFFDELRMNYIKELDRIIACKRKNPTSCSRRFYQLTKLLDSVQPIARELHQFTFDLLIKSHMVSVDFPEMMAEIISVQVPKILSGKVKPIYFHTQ
Description: On the morning of the binding assay, ventral prostates collected from 24 h-gonadectomized rats were homogenized in buffer A (1 g of tissue in 5 mL) and the homogenate was centrifuged as described above.
Androgen binding is measured using the hydroxylapatite (HAP) assay. In brief, the radioactive steroid [^3H]R1881 solubilized in ethanol is diluted with buffer B (10 mM Tris-HCl, 1.5 mM EDTA disodium salt, 10 mM α-monothioglycerol, pH 7.4). Aliquots of the cell or prostate cytosol preparation (0.1 ml) are then incubated with 5 nM [^3H]R1881 (0.1 ml, ˜100 000 cpm) in the presence or absence of the indicated concentrations of unlabeled compounds (0.1 ml, prepared in buffer B containing 30% ethanol) for 16-18 h at 0-4° C. Triamcinolone acetonide (TAC; 100 nM) is added to mask progesterone receptors. Unbound steroids are separated by incubation for 40 min at 0-4° C. with 0.3 ml HAP prepared in buffer P (50 mM Tris-HCl, 10 mM KH2PO4, pH 7.4). After incubation with HAP and 10 min of centrifugation at 1000×g, the pellet is washed 3 times with 1 ml of buffer P. Thereafter, the radioactivity is extracted from the pellet by incubation at room temperature for 60 min with 1 ml of ethanol. After centrifugation, the supernatant is decanted into a scintillation vial and the pellet is extracted again with ethanol. After the addition of scintillation liquid, the radioactivity is measured in a liquid scintillation counter.

androgen receptor = experiment: Antiandrogen / SARM / androgen profile observed on structural change; conditions: structure-activity observation in estratriene derivatives
Description: Preferred positions on the steroid to this change in activities are 3, 4, 11β, 16 and 17α. […] Moreover, when we changed the 4-fluoro by a 4-chloro on EM-6583, we obtained a pure androgen (EM-5697). Similarly, when we increased the size of the chain at 17α-position on (1,4-phenylene as a spacer group), EM-8419 became a SARM. Again, when we changed the 4-fluoro by a 4-chloro on EM-8419, we obtained a pure androgen (EM-5313).
We also believed that a larger size increase could reverse the observed tendency (androgen to SARM or antiandrogen). Thus, it is not obvious to make good predictions of the biological activity of this compound family but some trends are observable.

[2] = system: CX+ 4-DIONE in Mature Rat; experiment: Systemic antiandrogenic activity in mature male rats; type: in vivo; conditions: for inhibition of prostate weight (4-dione stimulated): 5 mg/rat
[3] = 0.1 mg/rat/os/ID, bulbocavernosus muscles weight
[4] = 0.1 mg/rat/os/ID, prostate weight
[5] = read-out: In Vivo Antagonist % Change vs DHT (CX = −100%) SV
[6] = read-out: In Vivo Antagonist % Change vs DHT (CX = −100%) VP

| Structure (SMILES) | % of stim of basal at 10^−7M (% over basal) [1] | % of stim of basal at 10^−7 M (DHT = 100%) [1] | inhibition at 0.0003 µM [1] | Human Androgen Receptor Binding RBA (%) R1881 = 100% (Human Androgen Receptor) | In Vivo Agonist Rat CX % change vs CX (DHT CONT = +100%) Bulbo (Immature Rat CX) | In Vivo Agonist Rat CX % change vs CX (DHT CONT = +100%) SV (Immature Rat CX) | In Vivo Agonist Rat CX % change vs CX (DHT CONT = +100%) VP (Immature Rat CX) | In Vivo Anti-A Rat CX + DHT % change vs DHT (CX CONT = −100%) Bulbo (Immature Rat CX + DHT; rat, in vivo) | In Vivo Anti-A Rat CX + DHT % change vs DHT (CX CONT = −100%) SV (Immature Rat CX + DHT; rat, in vivo) | In Vivo Anti-A Rat CX + DHT % change vs DHT (CX CONT = −100%) VP (Immature Rat CX + DHT; rat, in vivo) | In Vivo Intact Rat % change vs Intact CONT (Intact CONT = +100%; CX CONT = 0%) Bulbo (Intact Rat; [3]) | In Vivo Intact Rat % change vs Intact CONT (Intact CONT = +100%; CX CONT = 0%) VP (Intact Rat; [4]) | In Vivo Intact Rat % change vs Intact CONT (Intact CONT = +100%; CX CONT = 0%) SZ (Intact Rat; rat, in vivo) | AUC (in vivo) | In Vivo Agonist % Change vs CX (DHT = +100%) SV (Immature Rat CX) | In Vivo Agonist % Change vs CX (DHT = +100%) VP (Immature Rat CX) | change in vivo at 0.5 mg (Immature Rat CX + DHT; [5]) | change in vivo at 0.5 mg (Immature Rat CX + DHT; [6]) | % change vs 4-DIONE Cont (CX Cont = −100% inh) Seminal Vesicles ([2]; 1 mg/rat/per os/ID) | % change vs 4-DIONE Cont (CX Cont = −100% inh) Ventral Prostate ([2]; 1 mg/rat/per os/ID) | further results |
| --- | --- | --- | --- | --- | --- | --- | --- | --- | --- | --- | --- | --- | --- | --- | --- | --- | --- | --- | --- | --- | --- |
| C[C@@]1(Cc2ccc(C#N)cc2)CC2C3CCc4c(C#N)cccc4C3CC[C@]2(C)[C@H]1O (some centres unmarked) [EM-3585] | +279% | +63% | 41% | 55% | +74 ± 18% | +13 ± 4% | +20 ± 4% | [+67 ± 21] % | [−2 ± 15] % | [−26 ± 7] % | +263 ± 64% | +82 ± 17% | +114 ± 23% |  |  |  |  |  |  |  | AUC(0-t) (in vivo; plasma, 0.5 mg/animal): 2370 ± 253 ng·h/mL |
| CC(C)(O)C(=O)Nc1ccc([N+](=O)[O-])c(C(F)(F)F)c1 [Hydroxyflutamide, reference compound] |  |  |  | 0.21 ± 0.09% |  |  |  |  |  |  |  |  |  | 5380 ± 820 ng·h/mL |  |  |  |  |  |  | Shionogi cells Antiandrogenic activity Ki OH-Flu/Ki compound [1]: 1; Ki ([1]; read-out: Shionogi cells Antiandrogenic activity Ki): 16.8 ± 0.5 nM; Rat Androgen Receptor Binding RBA (%) R1881 = 100% (Rat Androgen Receptor): 0.1% |
| C[C@H]1C[C@@]2(C)C(CC[C@@]2(O)Cc2cc[n+]([O-])cc2)C2CCc3c(ccc(C#N)c3F)C21 (some centres unmarked) [EM-6583] | +138 ± 49% | +52 ± 27% | 46% | 21% | +93 ± 15% | +17 ± 3% | +37 ± 7% |  | −75 ± 5% | −46 ± 6% | +145 ± 46% | +90 ± 2% | +71 ± 16% |  |  |  |  |  |  |  | activity profile (antiandrogen, SARM or androgen) (androgen receptor): became a SARM |
| CC(C)C(=O)Nc1ccc([N+](=O)[O-])c(C(F)(F)F)c1 [Flutamide, reference compound] |  |  |  |  |  |  |  | [−68 ± 2] % | [−83 ± 1] % | [−48 ± 1] % |  |  | +33 ± 4% | 39 ± 4 ng·h/mL | (0; 0.2 mg, sc) % | (1; 0.2 mg, sc) % | -83% | -48% | −102 ± 8% | −47 ± 7% | change in vivo at 0.1 mg (Immature Rat CX + DHT; [5]): -62 ± 4%; change in vivo at 0.1 mg (Immature Rat CX + DHT; [6]): -26 ± 2%; inhibition of DHT-stimulated seminal vesicle weight (Immature Rat CX + DHT; rat, in vivo): 83%; inhibition of DHT-stimulated ventral prostate weight (Immature Rat CX + DHT; rat, in vivo): 48%; inhibition of prostate weight (4-dione stimulated) [2]: 70%; % change vs 4-DIONE Cont (CX Cont = −100% inh) Seminal Vesicles ([2]; 5 mg/rat/per os/ID): −106 ± 6%; % change vs 4-DIONE Cont (CX Cont = −100% inh) Ventral Prostate ([2]; 5 mg/rat/per os/ID): −70 ± 3%; In Vivo Intact Rat % change vs Intact CONT (Intact CONT = +100%; CX CONT = 0%) Bulbo (Intact Rat; rat, in vivo): +42 ± 6%; In Vivo Intact Rat % change vs Intact CONT (Intact CONT = +100%; CX CONT = 0%) VP (Intact Rat; rat, in vivo): +75 ± 4% |
| CC(O)(CS(=O)(=O)c1ccc(F)cc1)C(=O)Nc1ccc(C#N)c(C(F)(F)F)c1 (centres unmarked) [bicalutamide] |  |  |  |  |  |  |  |  |  |  |  |  |  | 8500 ± 386 ng·h/mL | (0; 0.2 mg, sc) % | (0; 0.2 mg, sc) % | -86% | -51% | −82 ± 9% | −44 ± 7% | inhibition of prostate weight (4-dione stimulated) [2]: 64%; % change vs 4-DIONE Cont (CX Cont = −100% inh) Seminal Vesicles ([2]; 5 mg/rat/per os/ID): −90 ± 6%; % change vs 4-DIONE Cont (CX Cont = −100% inh) Ventral Prostate ([2]; 5 mg/rat/per os/ID): −64 ± 4% |
